Reference: the supplement of paper PMC10307832

What was measured:
Assay in all cases: relative viability (nuclei count vs DMSO), 5 days (fraction); higher = more cells survive
[1] = compound: COc1cc2ncn(-c3cc(OCc4ccccc4C(F)(F)F)c(C(N)=O)s3)c2cc1OC + Nc1ncn([C@H]2C[C@H](O)[C@@H](CO)O2)c(=O)n1 [Decitabine] (partner 2 µM)
In short: (§1)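 Lung cancer cell lines were pin-tool dosed in 1536-well plates on the day after seeding, with either a lone drug or a fixed anchor-drug dose plus five library-drug doses (not always all listed) in √10 steps. Nuclei were counted on 4× images after 5 days. Relative viability is the ratio of treated-well to vehicle-well nuclei counts, with each value a median of duplicate plates.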

[2] = compound: COc1cc2ncn(-c3cc(OCc4ccccc4C(F)(F)F)c(C(N)=O)s3)c2cc1OC + CC(C)C[C@H](NC(=O)[C@H](Cc1ccccc1)NC(=O)c1cnccn1)B(O)O [Bortezomib] (partner 0.002 µM)
In short: as §1

[3] = compound: COc1cc2ncn(-c3cc(OCc4ccccc4C(F)(F)F)c(C(N)=O)s3)c2cc1OC + Cc1cc(Nc2cc(N3CCN(C)CC3)nc(Sc3ccc(NC(=O)C4CC4)cc3)n2)n[nH]1 [Tozasertib] (partner 0.1 µM)
In short: as §1

[4] = compound: COc1cc2ncn(-c3cc(OCc4ccccc4C(F)(F)F)c(C(N)=O)s3)c2cc1OC + NC(=O)Nc1cc(-c2cccc(F)c2)sc1C(=O)N[C@H]1CCCNC1 [AZD7762] (partner 0.2 µM)
In short: as §1

| Cell Line | relative viability ([1]; first compound 0.05 µM) | relative viability ([1]; first compound 0.1581 µM) | relative viability ([1]; first compound 0.5 µM) | relative viability ([1]; first compound 1.581 µM) | relative viability ([1]; first compound 5 µM) | relative viability ([2]; first compound 0.05 µM) | relative viability ([2]; first compound 0.1581 µM) | relative viability ([2]; first compound 0.5 µM) | relative viability ([2]; first compound 1.581 µM) | relative viability ([2]; first compound 5 µM) | relative viability ([3]; first compound 0.05 µM) | relative viability ([3]; first compound 0.1581 µM) | relative viability ([3]; first compound 0.5 µM) | relative viability ([3]; first compound 1.581 µM) | relative viability ([3]; first compound 5 µM) | relative viability ([4]; first compound 0.05 µM) | relative viability ([4]; first compound 0.1581 µM) | relative viability ([4]; first compound 0.5 µM) | relative viability ([4]; first compound 1.581 µM) | relative viability ([4]; first compound 5 µM) |
| --- | --- | --- | --- | --- | --- | --- | --- | --- | --- | --- | --- | --- | --- | --- | --- | --- | --- | --- | --- | --- |
| LCLC-97TM1 | 0.246 | 0.238 | 0.196 | 0.139 | 0.114 | 0.77 | 0.71 | 0.354 | 0.0568 | 0.0894 | 0.254 | 0.246 | 0.148 | 0.17 | 0.162 | 0.355 | 0.293 | 0.161 | 0.0896 | 0.0604 |
| HARA | 0.383 |  | 0.367 | 0.202 | 0.118 | 1.09 | 0.986 | 1.02 | 0.215 | 0.0851 | 0.091 | 0.117 | 0.117 | 0.111 | 0.0871 | 0.301 |  | 0.201 | 0.173 | 0.112 |
| HCC-78 | 0.688 | 0.652 | 0.671 | 0.473 | 0.446 | 0.472 | 0.496 | 0.39 | 0.238 | 0.227 | 0.517 | 0.345 | 0.325 | 0.222 | 0.292 | 0.795 | 0.653 | 0.493 | 0.565 | 0.422 |
| NCI-H1666 | 0.749 | 0.719 | 0.693 | 0.501 | 0.424 | 0.899 | 0.801 | 0.489 | 0.28 | 0.299 | 0.569 | 0.507 | 0.388 | 0.343 | 0.39 | 0.84 | 0.881 | 0.8 | 0.555 | 0.483 |
| NCI-H2347 | 0.556 | 0.589 | 0.531 | 0.499 | 0.482 | 1.1 | 0.861 | 0.543 | 0.372 | 0.479 | 0.464 | 0.622 | 0.264 | 0.372 | 0.363 | 0.832 | 0.726 | 0.716 | 0.435 | 0.393 |
| PC-14 | 0.272 | 0.195 | 0.141 | 0.0475 | 0.0694 | 0.723 | 0.794 | 0.404 | 0.0771 | 0.0641 | 0.649 | 0.715 | 0.525 | 0.163 | 0.354 | 0.371 | 0.405 | 0.334 | 0.113 | 0.0718 |
| NCI-H2023 | 0.203 | 0.213 | 0.159 | 0.0779 | 0.0772 | 0.998 | 1.24 | 0.403 | 0.0876 | 0.0864 | 0.24 | 0.341 | 0.164 | 0.132 | 0.0834 |  |  |  |  |  |
| 201T | 0.866 | 0.877 | 0.851 | 0.562 | 0.251 | 1.12 | 1.13 | 1.12 | 0.902 | 0.365 | 1.03 | 1.09 | 0.809 | 0.426 | 0.324 | 0.642 | 0.668 | 0.554 | 0.442 | 0.242 |
| NCI-H1915 | 0.249 | 0.261 | 0.228 | 0.143 | 0.0992 | 1.04 | 0.925 | 0.853 | 0.107 | 0.0772 | 0.499 | 0.515 | 0.352 | 0.166 | 0.142 | 0.709 | 0.862 | 0.597 | 0.161 | 0.097 |
| NCI-H2009 | 0.344 | 0.301 | 0.259 | 0.197 | 0.17 | 0.965 | 0.831 | 0.289 | 0.149 | 0.113 | 0.625 | 0.625 | 0.353 | 0.301 | 0.227 |  |  |  |  |  |
| BEN | 0.816 | 0.828 | 0.526 | 0.403 | 0.408 | 0.911 | 0.476 | 0.801 | 0.253 | 0.244 | 0.514 | 0.498 | 0.5 | 0.56 | 0.47 | 0.788 | 0.735 | 0.678 | 0.464 | 0.389 |
| PC-3 [JPC-3] | 0.779 | 0.842 | 0.653 | 0.396 | 0.43 | 0.863 | 0.803 | 0.775 | 0.285 | 0.231 | 0.892 | 0.856 | 0.4 | 0.33 | 0.369 | 0.833 | 0.741 | 0.597 | 0.238 | 0.252 |
| SK-MES-1 | 0.371 | 0.393 | 0.273 | 0.166 | 0.172 |  |  |  |  |  | 0.586 | 0.631 | 0.241 | 0.174 | 0.195 |  |  |  |  |  |
| NCI-H838 | 0.401 | 0.426 | 0.328 | 0.169 | 0.135 | 0.979 | 0.776 | 0.525 | 0.132 | 0.0869 | 0.245 | 0.258 | 0.189 | 0.25 | 0.204 | 0.968 | 0.916 | 0.73 | 0.609 | 0.581 |
| NCI-H1355 | 0.29 | 0.333 | 0.282 | 0.187 | 0.169 | 1.15 | 1.15 | 0.95 | 0.232 | 0.164 | 0.515 | 0.635 | 0.302 | 0.202 | 0.135 | 0.793 | 0.747 | 0.456 | 0.163 | 0.137 |
| NCI-H1975 | 0.359 | 0.302 | 0.27 | 0.153 | 0.142 | 0.371 | 0.335 | 0.182 | 0.144 | 0.115 | 0.677 | 0.453 | 0.173 | 0.138 | 0.126 | 0.737 | 0.751 | 0.564 | 0.433 | 0.261 |
| LK-2 | 0.271 | 0.236 | 0.133 | 0.131 | 0.0977 |  |  |  |  |  | 0.177 | 0.174 | 0.163 | 0.162 | 0.195 | 0.386 | 0.366 | 0.202 | 0.115 | 0.126 |
